# From patent publication US20190054054A1, “Methods reducing or preventing oxidation of high density lipoprotein (HDL)” (Amarin Pharmaceuticals Ireland Limited, priority 2017, published 2019)
# Assays:
# HUVECs [1] = experiment: NO and ONOO^− release from HUVECs pretreated with agents, then exposed to oxLDL (Example 11, Objective 1); assay type: cell-based, human; conditions: pretreatment 30 min, agents at 10 μM, then oxLDL 11 mg/dL up to 3 hr; for NO / ONOO^−: calcium ionophore 1.0 μM
# Method: The omega-3 fatty acid, cis-5,8,11,14,17-eicosapentaenoic acid (EPA) and docosahexaenoic acid (DHA) were purchased from Sigma-Aldrich (Saint Louis, Mo.) and solubilized in redistilled ethanol to 11 mM under nitrogen atmosphere. EPA and DHA stock solutions were stored at −20° C. until use.
# Human umbilical vein endothelial cells (HUVECs) were obtained from healthy, female donors and isolated into primary, proliferating cell cultures (Clonetics, San Diego, Calif.). […] The confluent cells (4 to 5×10^5 cells/35 mm dish) were plated with minimum essential medium containing 3 mM L-arginine and 0.1 mM BH4 [(6R)-5,6,7,8-tetrahydrobiopterin]. Before experimental use, the cells (from second or third passage) were rinsed twice with Tyrode-HEPES buffer with 1.8 mM CaCl2.
# Venous blood was collected from healthy volunteers into vacutainer tubes containing sodium EDTA. […] The LDL subfraction was retained for additional experimentation. Plasma and lipoprotein fractions were maintained at 4° C. and protected from excessive exposure to light. Prior to oxidation experiments, EDTA was removed from the lipoprotein fraction using PD-10 desalting columns (GE Healthcare, Piscataway N.J.). After equilibration of the column with phosphate buffered saline (PBS), 2.5 mL of the lipoprotein fraction was loaded on the column and the flow-through discarded. The lipoprotein was then eluted with 3 mL of PBS. The LDL fractions were further diluted with PBS to obtain a 100 μg/mL apoB100 concentration.
# LDL underwent oxidation following the addition of 10 μM CuSO4. To measure oxidation, 100 μL aliquots were removed and combined with 1.0 mL thiobarbituric acid (0.5%), 10 μL trichloroacetic acid (5%), 10 μL BHT (5 mg/mL in methanol), and 10 μL EDTA (5 mM). […] Sample TBARS concentrations were determined spectrophotometrically by measuring sample absorbances against a standard curve derived from the hydrolysis of 1,1,3,3-tetramethoxypropane.
# Concurrent measurements of NO and ONOO^− were performed with tandem electrochemical nanosensors combined into one working unit with a total diameter of 200-400 nm. Their design is based on previously developed and chemically modified carbon-fiber technology. Each of the nanosensors was made by depositing a sensing material on the tip of a carbon fiber (length 4 to 5 μm, diameter 100-200 nm). The fibers were sealed with nonconductive epoxy and electrically connected to copper wires with conductive silver epoxy. Conductive films of polymeric Ni(II) tetrakis (3-methoxy-4-hydroxyphenyl) porphyrin and Mn(III) [2.2] paracyclophanyl-porphyrin were used for the NO and ONOO^− sensors, respectively.
# The amperometric method (with a response time of 0.1 ms) provides a quantitative signal (current) that is directly proportional to changes (from basal levels) in NO or ONOO^− concentration. Amperometric measurements were performed with a Gamry III double-channel potentiostat. Basal NO or ONOO^− levels were measured by differential pulse voltammetry in separate experiments.
# All measurements of NO and ONOO^− were performed on intact endothelial cells. The NO/ONOO^− nanosensor module was positioned 5±2 μm from the surface of each individual endothelial cell using a computer-controlled M3301 micromanipulator (x-y-z resolution of 0.2 μm) and microscope (both from World Precision Instruments, Berlin, Germany) fitted with a CD camera. […] Cells will then be treated with calcium ionophore (to maximally stimulate the release of nitrous molecules) and monitored continuously for changes in amperometric current.
# Data are presented as mean+S.D. for (N) separate samples or treatment groups. Differences between groups were analyzed using the two-tailed, Student's t-test (for comparisons between only two groups) or ANOVA followed by Dunnett or Student-Newman-Keuls multiple comparisons post-hoc analysis (for comparisons between three or more groups). Alpha error was set to 0.05 in this study.
# NO and ONOO^− release were measured following stimulation with calcium.
# human LDL = experiment: Copper-induced oxidation of unfractionated LDL, TBARS (Example 7); assay type: biochemical; conditions: for effect on unfractionated LDL oxidation as compared to vehicle-treated controls: all agents at 10 μM, 1 hour (FIG. 25)
# Method: (§1) An experiment to study the antioxidant effect of EPA in LDL and small dense […] performed. […] Fenofibrate, gemfibrozil, and niacin were purchased from Sigma-Aldrich. […] Vitamin E was also incubated with sample aliquots as a positive control.
# HUVECs [2] = experiment: NO release from HUVECs incubated with agent-treated oxidized sdLDL (Example 12); assay type: cell-based, human; conditions: for reduction of NO release as compared to vehicle-treated, oxidized sdLDL: oxidized sdLDL pretreated with agent at 10.0 μM
# Method: All samples, with the exception of non-oxidized sdLDL controls, were subjected to copper-induced oxidation for 1 hour. Human umbilical vein endothelial cells (HUVECs) were incubated with the various sdLDL samples, stimulated with calcium, and monitored for nitric oxide (NO) and peroxynitrite (ONOO^−) release using nanosensor technology.
# [3] = system: sdLDL isolated from human subjects under conditions of hyperglycemia; experiment: Glucose-induced sdLDL oxidation, MDA/TBARS (Example 10); assay type: biochemical; conditions: 200 mg/dL glucose; for effect on glucose-induced sdLDL oxidation: 10.0 μM
# Method: Vitamin E (α-tocopherol) purchased from Sigma-Aldrich was prepared in ethanol at 1.0 mM (E=[…] at 294 nm) prior to experimental use. Test compounds were further diluted in ethanol or aqueous buffer as needed. Phosphate Buffered Saline (PBS) purchased from Sigma-Aldrich was prepared in double distilled water at 10 mM (138 mM NaCl, 2.7 mM KCl, pH 7.4). […] Lipid oxidation was measured by the colorimetric detection of malondialdehyde (MDA), a marker of oxidative stress. Data were presented as mean±SD for (n) separate samples or experiments. Differences between groups were analyzed using the unpaired, two-tailed Student's t-test (for comparisons between only two groups) or ANOVA followed by Student-Newman-Keuls multiple comparisons post hoc analysis (for comparisons between three or more groups).
# human sdLDL = experiment: Copper-induced sdLDL oxidation, TBARS (Example 7); assay type: biochemical; conditions: for effect on sdLDL oxidation as compared to vehicle-treated controls: all at 10 μM, 1 hour (FIG. 16)
# Method: as §1
Structure (SMILES),NO (HUVECs [1]),ONOO^− (HUVECs [1]),effect on unfractionated LDL oxidation as compared to vehicle-treated controls (human LDL),"reduction of NO release as compared to vehicle-treated, oxidized sdLDL (HUVECs [2]) [%]",effect on glucose-induced sdLDL oxidation [3],effect on sdLDL oxidation as compared to vehicle-treated controls (human sdLDL),NO/ONOO^− Ratio (HUVECs [1]),further results
"CC/C=C\C/C=C\C/C=C\C/C=C\C/C=C\C/C=C\CCC(=O)O [DHA, docosahexaenoic acid]",378 ± 5,229 ± 16,–,–,–,–,–,–
"CC/C=C\C/C=C\C/C=C\C/C=C\C/C=C\CCCC(=O)O [EPA, cis-5,8,11,14,17-eicosapentaenoic acid]",394 ± 43,228 ± 10,–,–,–,–,–,"effect on unfractionated LDL oxidation, dose dependence (human LDL; 1 hour): significantly and reproducibly inhibited unfractionated LDL oxidation in a dose-dependent manner; inhibition of TBARS formation compared to vehicle-treated control (human LDL; highest treatment concentration, 1 hour): > 90%; increase in NO release as compared to non-oxidized sdLDL treatment (HUVECs [2]; EPA-treated, oxidized sdLDL): 23%; increase in NO release as compared to oxidized LDL treatment (HUVECs [2]; EPA-treated, oxidized sdLDL): 53%; HUVEC NO release (HUVECs [2]; exposure to EPA-treated (10.0 μM), oxidized sdLDL): 931 ± 59 nM; IC50 ([3]; read-out: IC50, inhibition of glucose-induced sdLDL oxidation): < 1000 nM; inhibition of sdLDL oxidation as compared to vehicle controls ([3]; highest concentration tested): 94%; sdLDL oxidation (formation of MDA) ([3]; highest concentration tested, unit of the source corrected): 0.2 ± 0.1 µM; inhibition of sdLDL oxidation as compared to vehicle (human sdLDL; 1.0 μM (each agent), 1 hr): 19±8%; effect on sdLDL oxidation as compared to vehicle or DHA (human sdLDL; 10.0 μM, after 4 hours): significantly inhibited sdLDL oxidation; IC50 (human sdLDL; 1 hr, 10 μM CuSO4, read-out: IC50, inhibition of sdLDL oxidation (calculated)): ~2000 nM; inhibition of sdLDL oxidation as compared to vehicle (human sdLDL; each agent at 10.0 μM, 1 hour (FIG. 17)): 92±8%; inhibition of TBARS formation (human sdLDL; highest treatment concentration (10 μM), 1 hr): 93±2%"
Cc1ccc(C)c(OCCCC(C)(C)C(=O)O)c1 [gemfibrozil],377 ± 24,228 ± 11,no significant effect on unfractionated LDL oxidation,33,did not inhibit glucose-induced sdLDL oxidation,no significant effect on sdLDL oxidation,1.65±0.13,NO/ONOO^− Ratio (HUVECs [1]; listed as Gemfib): 1.65 ± 0.13
"O=C(O)c1cccnc1 [niacin, nicotinic acid]",346 ± 17,238 ± 20,no significant effect on unfractionated LDL oxidation,45,did not inhibit glucose-induced sdLDL oxidation,no significant effect on sdLDL oxidation,1.45±0.14,NO/ONOO^− Ratio (HUVECs [1]; listed as Niacin): 1.45 ± 0.14
"Cc1c(C)c2c(c(C)c1O)CC[C@@](C)(CCC[C@H](C)CCC[C@H](C)CCCC(C)C)O2 [vitamin E, α-tocopherol]",–,–,no significant effect on unfractionated LDL oxidation,–,failed to inhibit sdLDL oxidation,no significant effect on sdLDL oxidation,–,increase in sdLDL oxidation as compared to glucose-treated controls [3]: 63%
